In ChEMBL document CHEMBL3352247, “Synthesis and antimycobacterial evaluation of 5-alkylamino-N-phenylpyrazine-2-carboxamides” (Bioorg Med Chem, 2015) one finds Activity and MIC data, which are given here for nine compounds.

Active and inactive are the calls of the source. The calls are words filed in the database; no cut-off is given here.

For one experiment, the system named is Pseudomonas aeruginosa. The experiment is described as follows: Antibacterial activity against Pseudomonas aeruginosa CCM 1961 after 24 to 48 hrs by broth microdilution method. The experiment is classed as functional, organism-based. Background: Broth dilution looks for growth in wells or tubes with falling amounts of substance.
The next experiment relates to Escherichia coli. The experiment is described as follows: Antibacterial activity against Escherichia coli CCM 4517 after 24 to 48 hrs by broth microdilution method. Format: functional, organism-based.
For experiment [1], the system named is Staphylococcus aureus. Nature of the experiment: Antibacterial activity against methicillin-resistant Staphylococcus aureus H 5996/08 clinical isolate after 24 to 48 hrs by broth microdilution method. The experiment is classed as functional, organism-based.
The test system of a further experiment is Nakaseomyces glabratus. Nature of the experiment: Antifungal activity against Candida glabrata 20/I after 24 to 48 hrs by two-fold dilution method. Format: functional, organism-based.
Another experiment has as its system Trichosporon asahii. The experiment is described as follows: Antifungal activity against Trichosporon asahii 1188 after 24 to 48 hrs by two-fold dilution method. Format: functional, organism-based.
The nature of experiment [2]: Antimycobacterial activity against Mycobacterium avium subsp. avium Chester CNCTC My 80/72 in Middlebrook 7H9 broth after 5 days by AlamarBlue assay. The experiment is classed as functional. The conditions noted are these: Chester CNCTC My 80/72, 120 h. For orientation: Resazurin is reduced to fluorescent resorufin, in cell work by metabolically active cells.
Another experiment concerns Lichtheimia corymbifera. Nature of the experiment: Antifungal activity against Absidia corymbifera 272 after 24 to 48 hrs by two-fold dilution method. Format: functional, organism-based.
Another experiment deals with Pichia kudriavzevii. The experiment is described as follows: Antifungal activity against Candida krusei E28 after 24 to 48 hrs by two-fold dilution method. The experiment is classed as functional, organism-based.
The test system of experiment [3] is Klebsiella pneumoniae. The experiment is described as follows: Antibacterial activity against Klebsiella pneumoniae D 11750/08 clinical isolate after 24 to 48 hrs by broth microdilution method. The experiment is classed as functional, organism-based.
The next experiment deals with Candida tropicalis. The experiment is described as follows: Antifungal activity against Candida tropicalis 156 after 24 to 48 hrs by two-fold dilution method. The experiment is classed as functional, organism-based.
In another experiment the test system is Mycobacterium kansasii. The experiment is described as follows: Antimycobacterial activity against Mycobacterium kansasii CNCTC My 235/80 in Middlebrook 7H9 broth after 5 days by AlamarBlue assay. Format: functional. Conditions: CNCTC My 235/80, 120 h.
Experiment [4] deals with Staphylococcus aureus. Nature of the experiment: Antibacterial activity against Staphylococcus aureus CCM 4516/08 after 24 to 48 hrs by broth microdilution method. The experiment is classed as functional, organism-based.
For a further experiment, the system named is Candida albicans. Nature of the experiment: Antifungal activity against Candida albicans ATCC 44859 after 24 to 48 hrs by two-fold dilution method. Format: functional, organism-based.
In the next experiment the test system is Aspergillus fumigatus. The experiment is described as follows: Antifungal activity against Aspergillus fumigatus 231 after 24 to 48 hrs by two-fold dilution method. Format: functional, organism-based.
In experiment [5] the test system is Klebsiella pneumoniae. The experiment is described as follows: Antibacterial activity against ESBL-positive Klebsiella pneumoniae J 14368/08 clinical isolate after 24 to 48 hrs by broth microdilution method. Format: functional, organism-based.
Experiment [6] relates to Staphylococcus epidermidis. Nature of the experiment: Antibacterial activity against Staphylococcus epidermidis H 6966/08 clinical isolate after 24 to 48 hrs by broth microdilution method. Format: functional, organism-based.
A further experiment deals with Enterococcus sp. The experiment is described as follows: Antibacterial activity against Enterococcus sp. J 14365/08 clinical isolate after 24 to 48 hrs by broth microdilution method. Format: functional, organism-based.
The subject of experiment [7] is Mycobacterium tuberculosis. Nature of the experiment: Antimycobacterial activity against Mycobacterium tuberculosis H37Rv CNCTC My 331/88 in Middlebrook 7H9 broth after 5 days by AlamarBlue assay. The experiment is classed as functional. Conditions: H37Rv CNCTC My 331/88, 120 h.
Experiment [8] relates to Trichophyton mentagrophytes. Nature of the experiment: Antifungal activity against Trichophyton mentagrophytes 445 after 72 to 120 hrs by two-fold dilution method. Format: functional, organism-based.

With `O=C(Nc1ccccc1Cl)c1cnc(NCCCCCO)cn1`, the outcome with Pseudomonas aeruginosa, in the experiment with Escherichia coli, in the experiment with Staphylococcus aureus [1], in the experiment on Nakaseomyces glabratus, with Trichosporon asahii and with Lichtheimia corymbifera was inactive. Further, the result in the experiment on Pichia kudriavzevii, with Klebsiella pneumoniae [3], in the experiment with Candida tropicalis, in the experiment with Staphylococcus aureus [4], with Candida albicans and in the experiment on Aspergillus fumigatus was inactive. In addition, the outcome (in the experiment with Klebsiella pneumoniae [5]; in experiment [6]; in the experiment on Enterococcus sp.; in [8]) was inactive. For the same compound, the minimum inhibitory concentration (MIC) (in [2]; against Mycobacterium kansasii; in experiment [7]) was above 100 µg/mL in each case.

With `O=C(Nc1ccccc1)c1cnc(NCCO)cn1`, the result in the experiment with Pseudomonas aeruginosa, with Escherichia coli, in the experiment on Staphylococcus aureus [1], with Nakaseomyces glabratus, in the experiment on Trichosporon asahii and in the experiment with Lichtheimia corymbifera was inactive. The outcome with Pichia kudriavzevii, in the experiment with Klebsiella pneumoniae [3], in the experiment on Candida tropicalis, in the experiment with Staphylococcus aureus [4], with Candida albicans and in the experiment with Aspergillus fumigatus was inactive. Moreover, the outcome (in the experiment on Klebsiella pneumoniae [5]; in experiment [6]; in the experiment on Enterococcus sp.; in experiment [8]) was inactive. Further, the MIC (in experiment [2]; against Mycobacterium kansasii; in experiment [7]) was above 100 µg/mL in each case.

For the compound `Nc1cnc(C(=O)Nc2ccccc2)cn1`, the outcome in the experiment with Pseudomonas aeruginosa, with Escherichia coli, in the experiment with Staphylococcus aureus [1], with Nakaseomyces glabratus, in the experiment with Trichosporon asahii and in the experiment with Lichtheimia corymbifera was inactive. For the same compound, the result with Pichia kudriavzevii, with Klebsiella pneumoniae [3], in the experiment on Candida tropicalis, with Staphylococcus aureus [4], in the experiment with Candida albicans and with Aspergillus fumigatus was inactive. Besides, the result (in the experiment with Klebsiella pneumoniae [5]; in [6]; in the experiment on Enterococcus sp.; in experiment [8]) was inactive. Moreover, the MIC (in experiment [2]; against Mycobacterium kansasii; in [7]) was above 100 µg/mL in each case.

`O=C(Nc1ccccc1)c1cnc(NCCc2ccccc2)cn1`: the result in the experiment with Pseudomonas aeruginosa, in the experiment on Escherichia coli, in the experiment with Staphylococcus aureus [1], in the experiment on Nakaseomyces glabratus, in the experiment on Trichosporon asahii and in the experiment with Lichtheimia corymbifera was inactive. The outcome in the experiment on Pichia kudriavzevii, with Klebsiella pneumoniae [3], with Candida tropicalis, with Staphylococcus aureus [4], in the experiment on Candida albicans and in the experiment on Aspergillus fumigatus was inactive. Moreover, the outcome (in the experiment with Klebsiella pneumoniae [5]; in [6]; in the experiment on Enterococcus sp.; in [8]) was inactive. For the same compound, the MIC is above 100 µg/mL in experiment [2], above 100 µg/mL against Mycobacterium kansasii and 39.3 µM in experiment [7].

Take `COCCCNc1cnc(C(=O)Nc2ccccc2)cn1`: the outcome in the experiment on Pseudomonas aeruginosa, in the experiment with Escherichia coli, with Staphylococcus aureus [1], in the experiment on Nakaseomyces glabratus, in the experiment on Trichosporon asahii and with Lichtheimia corymbifera was inactive. Besides, the outcome in the experiment with Pichia kudriavzevii, in the experiment on Klebsiella pneumoniae [3], in the experiment on Candida tropicalis, in the experiment with Staphylococcus aureus [4], in the experiment on Candida albicans and with Aspergillus fumigatus was inactive. The result (in the experiment on Klebsiella pneumoniae [5]; in experiment [6]; in the experiment with Enterococcus sp.; in [8]) was inactive. Also, the MIC in experiment [2] was above 100 µg/mL; in the experiment on Mycobacterium kansasii, above 100 µg/mL; in experiment [7], 87.3 µM.

For `O=C(Nc1ccccc1Cl)c1cnc(NCCCO)cn1`, the outcome in the experiment on Pseudomonas aeruginosa, with Escherichia coli, with Staphylococcus aureus [1], in the experiment on Nakaseomyces glabratus, with Trichosporon asahii and with Lichtheimia corymbifera was inactive. For the same compound, the result with Pichia kudriavzevii, with Klebsiella pneumoniae [3], in the experiment with Candida tropicalis, in the experiment on Staphylococcus aureus [4], in the experiment with Candida albicans and in the experiment with Aspergillus fumigatus was inactive. For the same compound, the outcome (with Klebsiella pneumoniae [5]; in experiment [6]; with Enterococcus sp.; in experiment [8]) was inactive. Further, the MIC (in [2]; against Mycobacterium kansasii; in experiment [7]) was above 100 µg/mL in each case.

`O=C(Nc1ccccc1)c1cnc(NCCCCCO)cn1`: the outcome in the experiment with Pseudomonas aeruginosa, in the experiment with Escherichia coli, in the experiment with Staphylococcus aureus [1], in the experiment with Nakaseomyces glabratus, with Trichosporon asahii and in the experiment with Lichtheimia corymbifera was inactive. Further, the outcome in the experiment on Pichia kudriavzevii, in the experiment on Klebsiella pneumoniae [3], in the experiment with Candida tropicalis, with Staphylococcus aureus [4], with Candida albicans and in the experiment with Aspergillus fumigatus was inactive. For the same compound, the outcome (in the experiment with Klebsiella pneumoniae [5]; in [6]; in the experiment with Enterococcus sp.; in experiment [8]) was inactive. Also, the values for the MIC (in [2]; with Mycobacterium kansasii; in [7]) were above 100 µg/mL, above 100 µg/mL and 41.6 µM, respectively.

Turning to `O=C(Nc1ccccc1)c1cnc(NCCCc2ccccc2)cn1`, the outcome with Pseudomonas aeruginosa, in the experiment on Escherichia coli, with Staphylococcus aureus [1], in the experiment on Nakaseomyces glabratus, in the experiment with Trichosporon asahii and in the experiment on Lichtheimia corymbifera was inactive. Besides, the result in the experiment on Pichia kudriavzevii, in the experiment on Klebsiella pneumoniae [3], with Candida tropicalis, in the experiment with Staphylococcus aureus [4], in the experiment on Candida albicans and in the experiment on Aspergillus fumigatus was inactive. The outcome (with Klebsiella pneumoniae [5]; in [6]; with Enterococcus sp.; in experiment [8]) was inactive. The minimal inhibitory concentration (MIC) in experiment [2] was above 100 µg/mL; in the experiment with Mycobacterium kansasii it was above 100 µg/mL; in experiment [7], 75.2 µM.

For the compound `COCCNc1cnc(C(=O)Nc2ccccc2)cn1`, the outcome with Pseudomonas aeruginosa, in the experiment with Escherichia coli, in the experiment on Staphylococcus aureus [1], in the experiment with Nakaseomyces glabratus, in the experiment with Trichosporon asahii and in the experiment with Lichtheimia corymbifera was inactive. Moreover, the result in the experiment with Pichia kudriavzevii, in the experiment on Klebsiella pneumoniae [3], in the experiment on Candida tropicalis, in the experiment with Staphylococcus aureus [4], with Candida albicans and in the experiment on Aspergillus fumigatus was inactive. The result (with Klebsiella pneumoniae [5]; in [6]; with Enterococcus sp.; in experiment [8]) was inactive. Also, the MIC in [2] was above 100 µg/mL; in the experiment on Mycobacterium kansasii, above 100 µg/mL; in experiment [7], 184 µM.

Broadly, the MIC is the lowest concentration found to suppress growth. Low readings indicate greater potency, high ones weaker potency.
